The experiment addresses T1, BH3 deletion human Bak mutant protein (ΔBH3) (Homo sapiens, UniProt Q16611, DEL74-90).
T1 construct: His6; made in house; host or cells: Escherichia coli BL21 DE3
Nature of the experiment: Isothermal titration calorimetry (ITC), BH3 deletion mutant. The class given is binding. On the procedure:
The binding affinity of BKA-073 with Bak protein was examined by isothermal titration calorimetry (ITC) assay as described, [28]. ITC assay was carried out in the auto-iTC200 instrument (MicroCal, GE) at 25 °C. Purified recombinant human or mouse Bak protein was loaded into a 96 Deepwell PP plate. BKA-073 compound was then titrated stepwise into the protein for a total of 16 injections. Reference power and initial delay were set as 5 µCal/sec and 60s, respectively. A string speed of 750 rpm was used for the ITC measurements. The binding constant (Kd) value was determined by fitting the titration curve to a one-site binding mode, using the Origin software provided by the manufacturer.
To confirm the binding of BKA-073 with Bak, we first conducted a competitive fluorescence polarization (FP) assay using purified human Bak protein, fluorescent Bak BH3 domain peptide, and BKA-073 as described, [37]-[40]. […] There are multiple amino acid differences in the BH3 domains between Bak and other Bcl2 family members, which helps to explain why BKA-073 only binds to Bak but not to other Bcl2 family members (i.e. Bax, Bcl2, Bcl-XL, Bcl-w and Mcl-1). In addition to the FP assay, isothermal titration calorimetry (ITC) was also employed to measure Bak/BKA-073 binding. […] In addition to human Bak/BKA-073 binding, we measured mouse Bak/BKA-073 binding using ITC. […]

T1 sequence (Q16611 with tags, fused parts or gaps DEL74-90 limits assumed): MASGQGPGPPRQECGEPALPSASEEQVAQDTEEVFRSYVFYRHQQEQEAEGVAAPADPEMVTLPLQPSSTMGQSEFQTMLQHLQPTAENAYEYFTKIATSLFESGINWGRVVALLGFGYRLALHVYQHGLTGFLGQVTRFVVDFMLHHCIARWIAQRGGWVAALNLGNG

As for `COc1ccc2nc3ccccc3c(NCCNCC(C)O)c2c1` (stereo not shown) [BKA-073], the “binding to ΔBH3 Bak mutant” value was “failed to bind”.
